Patent US9199959B2, “HIV replication inhibitor” (Shionogi & Co., Ltd., priority 2011, dated 2015)

Experiments:
[1] = molecular target: T1, CYP3A4 (Homo sapiens, UniProt P08684); assay: CYP inhibition assay, terfenedine hydroxylation; assay type: in vitro ADME; conditions: pooled human liver microsomes, probe terfenedine (hydroxylation), 1 μmol/L, pooled human hepatic microsome
T1 construct: enzyme, pooled human hepatic microsome 0.2 mg protein/mL; from tissue; host or cells: pooled human liver microsomes
T1 sequence (P08684 whole entry): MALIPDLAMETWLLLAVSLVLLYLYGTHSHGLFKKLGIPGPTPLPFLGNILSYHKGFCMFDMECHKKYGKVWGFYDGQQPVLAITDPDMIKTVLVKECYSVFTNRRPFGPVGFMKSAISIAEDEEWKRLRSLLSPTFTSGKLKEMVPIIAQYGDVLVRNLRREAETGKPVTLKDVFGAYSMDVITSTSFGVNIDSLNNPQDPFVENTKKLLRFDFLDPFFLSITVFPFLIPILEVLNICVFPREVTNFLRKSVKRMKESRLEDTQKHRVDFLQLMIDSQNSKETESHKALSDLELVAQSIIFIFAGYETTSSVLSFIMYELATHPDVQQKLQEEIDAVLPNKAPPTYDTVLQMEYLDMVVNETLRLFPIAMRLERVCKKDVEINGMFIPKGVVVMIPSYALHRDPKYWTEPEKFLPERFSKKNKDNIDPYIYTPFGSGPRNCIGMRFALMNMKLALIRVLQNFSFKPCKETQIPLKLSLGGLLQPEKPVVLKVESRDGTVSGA
Experimental: (§1) Using commercially available pooled human hepatic microsome, and employing, as markers, 7-ethoxyresorufin O-deethylation (CYP1A2), tolbutamide methyl-hydroxylation (CYP2C9), mephenytoin 4′-hydroxylation (CYP2C19), dextromethorphan O-demethylation (CYP2D6), and terfenedine hydroxylation (CYP3A4) as typical substrate metabolism reactions of human main five CYP enzyme forms (CYP1A2, 2C9, 2C19, 2D6, 3A4), an inhibitory degree of each metabolite production amount by a test compound was assessed.
(§2) The reaction conditions were as follows: substrate, 0.5 μmol/L ethoxyresorufin (CYP1A2), 100 μmol/L tolbutamide (CYP2C9), 50 μmol/L S-mephenytoin (CYP2C19), 5 μmol/L dextromethorphan (CYP2D6), 1 μmol/L terfenedine (CYP3A4); reaction time, 15 minutes; reaction temperature, 37° C.; enzyme, pooled human hepatic microsome 0.2 mg protein/mL; test drug concentration, 1, 5, 10, 20 μmol/L (four points).
(§3) Each five kinds of substrates, human hepatic microsome, and a test drug in 50 mmol/L Hepes buffer as a reaction solution was added to a 96-well plate as the composition as described above, NADPH, as a cofactor was added to initiate metabolism reactions as markers and, after the incubation at 37° C. for 15 minutes, a methanol/acetonitrile=1/1 (v/v) solution was added to stop the reaction. After the centrifugation at 3000 rpm for 15 minutes, resorufin (CYP1A2 metabolite) in the supernatant was quantified by a fluorescent multilabel counter and tolbutamide hydroxide (CYP2C9 metabolite), mephenytoin 4′ hydroxide (CYP2C19 metabolite), dextrorphan (CYP2D6 metabolite), and terfenadine alcohol (CYP3A4 metabolite) were quantified by LC/MS/MS.
(§4) A reaction system containing only DMSO which is a solvent for dissolving a drug was adopted as a control (100%), and the remaining activity (%) was calculated, then IC50 was calculated by reverse presumption with a logistic model using a concentration and an inhibition rate.

[2] = molecular target: T2, CYP1A2 (Homo sapiens, UniProt P05177); assay: CYP inhibition assay, 7-ethoxyresorufin O-deethylation; assay type: in vitro ADME; conditions: pooled human liver microsomes, probe 7-ethoxyresorufin (O-deethylation), 0.5 μmol/L, pooled human hepatic microsome
T2 construct: enzyme, pooled human hepatic microsome 0.2 mg protein/mL; from tissue; host or cells: pooled human liver microsomes
T2 sequence (P05177 1-516): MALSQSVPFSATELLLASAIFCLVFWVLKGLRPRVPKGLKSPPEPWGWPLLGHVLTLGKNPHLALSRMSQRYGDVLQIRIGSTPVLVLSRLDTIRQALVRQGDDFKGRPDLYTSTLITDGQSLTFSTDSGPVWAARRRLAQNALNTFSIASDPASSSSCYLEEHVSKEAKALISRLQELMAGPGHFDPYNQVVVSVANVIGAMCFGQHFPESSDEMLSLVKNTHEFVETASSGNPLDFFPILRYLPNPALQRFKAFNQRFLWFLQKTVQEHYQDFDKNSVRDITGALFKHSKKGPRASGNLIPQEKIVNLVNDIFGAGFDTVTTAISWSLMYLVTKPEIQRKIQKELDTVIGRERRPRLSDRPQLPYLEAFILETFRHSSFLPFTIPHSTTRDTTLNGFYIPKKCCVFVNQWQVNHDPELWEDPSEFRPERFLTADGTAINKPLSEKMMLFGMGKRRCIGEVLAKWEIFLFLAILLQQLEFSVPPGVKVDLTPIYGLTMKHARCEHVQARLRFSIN
Experimental: as §1, §2, §3, §4

[3] = molecular target: T3, human ether-a-go-go related gene (hERG) channel (Homo sapiens, UniProt Q12809); assay: hERG test, whole cell patch clamp; assay type: cell-based; conditions: HEK293 cells expressing hERG channel
T3 construct: expressed in transfected cells; host or cells: HEK293
T3 sequence (Q12809 whole entry): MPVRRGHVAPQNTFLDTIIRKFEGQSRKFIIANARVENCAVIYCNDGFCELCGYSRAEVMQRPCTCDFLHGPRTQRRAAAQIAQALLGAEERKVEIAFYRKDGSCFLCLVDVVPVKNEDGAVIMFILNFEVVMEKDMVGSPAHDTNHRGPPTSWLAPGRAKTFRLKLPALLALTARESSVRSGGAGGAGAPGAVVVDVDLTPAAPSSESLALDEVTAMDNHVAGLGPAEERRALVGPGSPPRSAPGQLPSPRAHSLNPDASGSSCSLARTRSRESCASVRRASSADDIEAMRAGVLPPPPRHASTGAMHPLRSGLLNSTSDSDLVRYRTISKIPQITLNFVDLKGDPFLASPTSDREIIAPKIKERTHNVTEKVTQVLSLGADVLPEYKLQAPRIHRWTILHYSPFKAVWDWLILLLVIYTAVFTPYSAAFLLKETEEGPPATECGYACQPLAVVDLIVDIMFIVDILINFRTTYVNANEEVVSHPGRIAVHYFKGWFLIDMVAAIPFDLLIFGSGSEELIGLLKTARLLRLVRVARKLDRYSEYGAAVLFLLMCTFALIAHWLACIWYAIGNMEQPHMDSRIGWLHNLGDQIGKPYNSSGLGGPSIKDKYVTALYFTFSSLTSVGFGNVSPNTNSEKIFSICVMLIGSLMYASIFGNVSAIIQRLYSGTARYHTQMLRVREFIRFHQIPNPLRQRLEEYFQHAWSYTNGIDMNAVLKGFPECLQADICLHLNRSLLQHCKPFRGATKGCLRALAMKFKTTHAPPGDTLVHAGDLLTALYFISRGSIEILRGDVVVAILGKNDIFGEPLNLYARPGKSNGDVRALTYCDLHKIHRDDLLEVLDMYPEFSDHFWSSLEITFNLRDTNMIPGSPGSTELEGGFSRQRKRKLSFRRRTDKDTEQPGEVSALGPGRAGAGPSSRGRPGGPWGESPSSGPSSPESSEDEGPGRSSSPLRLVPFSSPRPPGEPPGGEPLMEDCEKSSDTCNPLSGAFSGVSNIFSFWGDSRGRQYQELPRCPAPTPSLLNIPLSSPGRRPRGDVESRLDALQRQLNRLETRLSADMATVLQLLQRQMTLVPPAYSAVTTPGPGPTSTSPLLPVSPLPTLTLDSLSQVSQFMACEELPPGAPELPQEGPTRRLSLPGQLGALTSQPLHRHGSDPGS
Excerpt: For the purpose of assessing risk of an electrocardiogram QT interval prolongation, effects on delayed rectifier K+ current (IKr), which plays an important role in the ventricular repolarization process of the compound of the present invention, was studied using HEK293 cells expressing human ether-a-go-go related gene (hERG) channel.
After a cell was retained at a membrane potential of −80 mV by whole cell patch clamp method using an automated patch clamp system (PatchXpress 7000A, Axon Instruments Inc.), IKr induced by depolarization pulse stimulation at +40 mV for 2 seconds and, further, repolarization pulse stimulation at −50 mV for 2 seconds was recorded. […] From the recording IKr, an absolute value of the tail peak current was measured based on the current value at the resting membrane potential using an analysis software (DataXpress ver. 1, Molecular Devices Corporation). Further, the inhibition relative to the tail peak current before application of the test substance was calculated, and compared with the vehicle-applied group (0.1% dimethyl sulfoxide solution) to assess influence of the test substance on IKr.

[4] = system: HIV (HTLV-III B strain); assay: HIV replication inhibition assay (MTT, MT-4 cells); assay type: cell-based; conditions: Human immunodeficiency virus 1, MT4, 96 h, four days culture, concentration at which cell cytotoxicity by virus is inhibited 50%
Experimental: HIV (HTLV-III B strain) persistent infected human T cell strain Molt-4 clone 8 was cultured in 10% Fetal Bovine Serum-containing RPMI-1640 medium and the supernatant was filtrated, then the virus titer was measured and the solution was stored at −80° C. Each anti-human immunodeficiency virus active substance was diluted with the above cultured medium to the designated concentration, which was dispensed into 96 well micro plate by 50 μL. Next, a MT-4 cell suspended liquid was dispensed by 100 μL (2.5×10^4 cells), then the above HIV-containing supernatant diluted with the above cultured medium was added thereto by 50 μL (60 pfu (plaque forming unit)).
The obtained mixture was cultured at 37° C. in CO2 incubator for four days, then 3-(4,5-dimehylthiazole-2-yl)-2,5-diphenyltetrazolynium bromide (MTT) 5 mg/mL in PBS was added to each well by 30 μL, followed by 1 hr-cultivation. In this step, as formazan was precipitated by reduction of MTT in living cells, the cell supernatant was removed from all well by 150 μL, then a 150 μL of solution (10% Triton X-100 and […]) was added thereto, followed by shaking with a plate mixer, to elute formazan. The formazan was measured with a microreader at OD: 560 nm and 690 nm (wavelength) and the result was compared with the reference. EC50 means the compound concentration at which cell cytotoxicity by virus is inhibited 50%.

[5] = molecular target: T4, CYP2C19 (Homo sapiens, UniProt P33261); assay: CYP inhibition assay, mephenytoin 4'-hydroxylation; assay type: in vitro ADME; conditions: pooled human liver microsomes, probe S-mephenytoin (4'-hydroxylation), 50 μmol/L, pooled human hepatic microsome
T4 construct: enzyme, pooled human hepatic microsome 0.2 mg protein/mL; from tissue; host or cells: pooled human liver microsomes
T4 sequence (P33261 whole entry): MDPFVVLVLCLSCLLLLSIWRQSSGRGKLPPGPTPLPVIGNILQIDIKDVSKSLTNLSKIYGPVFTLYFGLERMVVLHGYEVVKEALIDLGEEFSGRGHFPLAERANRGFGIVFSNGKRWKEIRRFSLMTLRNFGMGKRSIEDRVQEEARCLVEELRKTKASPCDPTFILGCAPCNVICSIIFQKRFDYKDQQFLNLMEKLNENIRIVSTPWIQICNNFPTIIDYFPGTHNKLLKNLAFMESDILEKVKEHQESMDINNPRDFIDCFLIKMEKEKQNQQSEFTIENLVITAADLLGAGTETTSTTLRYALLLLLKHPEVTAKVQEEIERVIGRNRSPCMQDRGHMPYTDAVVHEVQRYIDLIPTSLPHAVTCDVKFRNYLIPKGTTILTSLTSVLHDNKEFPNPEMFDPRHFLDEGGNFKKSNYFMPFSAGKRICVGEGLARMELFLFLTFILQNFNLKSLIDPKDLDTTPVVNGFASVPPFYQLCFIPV
Experimental: as §1, §2, §3, §4

CC(=O)Nc1c(C)c(C(OC(C)(C)C)C(=O)O)c(-c2ccc(C)c(C)c2)c(C)c1-c1ccc(C)c(C)c1 (centres unmarked) [Compound I-6]
IC50 at 15 min [1]: ≥ 20 µM | IC50 at 15 min [2]: ≥ 20 µM | inhibition ratio of IKr tail peak current [3]: 3.5% | EC50 [4]: 0.0078 µM | IC50 at 15 min [5]: ≥ 20 µM
